Values joined by “and” are separate entries in the source; they are usually repeats but may differ in a detail not shown here. Identical values can stand only once. Like-named read-outs stand apart in the source and are kept apart here.
Assays:
human renin = biological target: T1, human renin (Homo sapiens, UniProt P00797); experiment: Human renin inhibition in vitro; type: biochemical
T1 construct: purchased National Institute for Biological Standards, London
T1 sequence (P00797 67-406): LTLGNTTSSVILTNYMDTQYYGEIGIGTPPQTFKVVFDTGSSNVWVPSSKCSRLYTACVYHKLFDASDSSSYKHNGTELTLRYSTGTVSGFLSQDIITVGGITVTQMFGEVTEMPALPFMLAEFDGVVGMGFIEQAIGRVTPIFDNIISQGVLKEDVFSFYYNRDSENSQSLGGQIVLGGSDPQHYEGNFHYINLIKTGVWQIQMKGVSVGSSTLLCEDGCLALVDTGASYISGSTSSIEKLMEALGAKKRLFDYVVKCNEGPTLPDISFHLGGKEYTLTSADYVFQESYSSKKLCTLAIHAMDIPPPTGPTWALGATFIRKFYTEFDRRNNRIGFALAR
Protocol: Compounds of Formula I were evaluated as inhibitors of human renin in an in vitro assay, as follows: This human renin inhibition test has been previously described in detail [Papaioannou et al., Clinical and Experimental Hypertension, A7(9), 1243-1257 (1985)]. Human renin was obtained from the National Institute for Biological Standards, London. An incubation mixture was prepared containing the following components: in a total volume of 0.25 mL: 100 mM Tris-acetate buffer at pH 7.4, 25×10^−6 Goldblatt units of renin, 0.05 mL of plasma from human volunteers taking oral contraceptives, 6.0 mM Na-EDTA, 2.4 mM phenylmethyl sulfonyl fluoride, 1.5 mM 8-hydroxyquinoline, 0.4 mg/mL bovine serum albumin (BSA), and 0.024 mg/mL neomycin sulfate. This mixture was incubated for two hours at 37° C. in the presence or absence of renin inhibitors. The produced angiotensin I was determined by radioimmunoassay (New England Nuclear kit). Test compounds to be assayed were dissolved in DMSO and diluted with 100 mM Tris-acetate buffer at pH 7.4 containing 0.5% BSA to the appropriate concentration. The final concentration of organic solvent in the reaction mixture was less than 1%. Control incubations at 37° C. were used to correct for effects of organic solvent on renin activity.

[1] = tested on: Plasma Renin Activity (PRA); experiment: Marmoset plasma renin activity (PRA) reduction on oral administration; type: in vivo, Marmoset monkeys (Callithrix jacchus); settings: IG; for inhibition at 0.1 mg/kg / inhibition at 1 mg/kg: Primates, po
Protocol: The oral activity of renin inhibitor compounds was determined in vivo in Marmoset monkeys using the following procedure. Common Marmoset monkeys (Callithrix jacchus, Charles River, both sexes, body weight 300-400 g) were placed on a modified high-protein low-sodium diet (Purina, St. Louis, Mo.) for 1 week. About 24 hours prior to the administration of test compound, Lasix (5 mg/kg, im) was given. On the day of the test, the animal was anesthetized with isoflurane, body weight recorded, and a baseline blood sample taken. Then, test compound was given intragastrically and blood samples were taken in K-EDTA for plasma renin activity at appropriate time intervals. The PRA was determined by using the protocol outlined below. Results are expressed in terms of PRA at various time intervals both before and after compound administrations (“Pre” means pretreatment levels before compound administrations). Also included is percent inhibition (% INH from pretreatment levels).
I. Angiotensin I Generation
25 ml of the above reaction mixtures, in duplicate, were incubated at 37° C. or 0° C. for 2 hours.
II. Determination of Angiotensin I Concentrations
Angiotensin I (AI) concentrations were determined by radioimmunoassays with a commercial kit from NEN Co.
III. Calculation of Plasma Renin Activity
PRA (ng AI/ml/hr)=(AI at 37°−AI at 0°)/2 hr.

[2] = 0.1 MPK, 60 min, individual monkeys
[3] = 0.1 MPK, 60 min from dosing, individual monkeys
[4] = 0.1 MPK, 120 min, individual monkeys
[5] = 0.1 MPK, 120 min from dosing, individual monkeys
[6] = 0.1 MPK, 240 min, individual monkeys
[7] = 0.1 MPK, 240 min from dosing, individual monkeys
[8] = 0.1 MPK, Pre (pretreatment level), individual monkeys
[9] = 0.1 MPK, 60 min, individual monkeys, read-out: % INH (from pretreatment PRA)
[10] = 0.1 MPK, 240 min, individual monkeys, read-out: % INH (from pretreatment PRA)
[11] = 1 h, 0.1 MPK, 60 min, mean of monkeys A-C, read-out: MEAN % INH
[12] = 2 h, 0.1 MPK, 120 min, mean of monkeys A-C, read-out: MEAN % INH
[13] = 4 h, 0.1 MPK, 240 min, mean of monkeys A-C, read-out: MEAN % INH

Structure (SMILES)	IC50 (human renin) [nM]	% INH (from pretreatment PRA) [1, 2]	PRA [1, 3]	% INH (from pretreatment PRA) [1, 4]	PRA [1, 5]	% INH (from pretreatment PRA) [1, 6]	PRA [1, 7]	PRA [1, 8]	inhibition at 0.1 mg/kg [1, 9] [%]	inhibition at 0.1 mg/kg [1, 10] [%]	inhibition at 0.1 mg/kg [1, 11] [%]	inhibition at 0.1 mg/kg [1, 12] [%]	inhibition at 0.1 mg/kg [1, 13] [%]	also measured
C#CC[C@H](NC(=O)[C@@H](CC(=O)N(C)CCN(CC)CC)Cc1ccccc1)C(=O)N[C@@H](CC1CCCCC1)[C@@H](O)[C@@H](O)CC(C)C [Example 4]	1	–	–	–	–	–	–	–	–	–	–	–	–	–
C#CC[C@H](NC(=O)C(Cc1ccccc1)OC(=O)N(C)CCN(C)C)C(=O)NC(CC1CCCCC1)[C@@H](O)C(O)CC(C)C (relative stereo) [Example 2, [1R*-[[[1R*-[[[1S,1R*-(Cyclohexylmethyl)-2S*,3R*-dihydroxy-5-methylhexyl]amino]carbonyl]-3-butynyl]amino]carbonyl]-2-phenylethyl)[2-(dimethylamino)ethyl]methylcarbamate]	4	71.5% and 81.2%	3.9 ngAI/ml/hr and 33.9 ngAI/ml/hr and 12.7 ngAI/ml/hr	86.4% and 64.8% and 78.7%	5.7 ngAI/ml/hr and 41.8 ngAI/ml/hr and 14.4 ngAI/ml/hr	57.2% and 58.2%	28.5 ngAI/ml/hr and 18.1 ngAI/ml/hr and 49.7 ngAI/ml/hr	42.2 ngAI/ml/hr and 118.8 ngAI/ml/hr and 67.5 ngAI/ml/hr	90.7	57.7	81.1 ± 6	76.6 ± 6	57.7	–
C#CCC(NC(=O)C(Cc1ccccc1)OC(=O)N(C)CCN(C)C)C(=O)NC(CC1CCCCC1)[C@@H](O)C(O)CC(C)C (stereo in doubt) [Example 3, [1R*-[[[1-[[[1S,1R*-(Cyclohexylmethyl)-2S*,3R*-dihydroxy-5-methylhexyl]amino]carbonyl]-3-butynyl]amino]carbonyl]-2-phenylethyl[]2-(dimethylamino)ethyl]methylcarbamate]	3	60.7% and 66.7%	42.1 ngAI/ml/hr and 29.8 ngAI/ml/hr and 27.8 ngAI/ml/hr	46.9% and 60.3%	47.1 ngAI/ml/hr and 40.3 ngAI/ml/hr and 33.2 ngAI/ml/hr	63.9% and 48%	36.1 ngAI/ml/hr and 38.1 ngAI/ml/hr and 39.5 ngAI/ml/hr	105.5 ngAI/ml/hr and 76 ngAI/ml/hr and 83.7 ngAI/ml/hr	60.1	56.8	62.5 ± 2	54.2 ± 4	56.2 ± 5	PRA ([1]; 1.0 MPK, 60 min from dosing, individual monkeys): 0 ngAI/ml/hr; PRA ([1]; 1.0 MPK, 120 min from dosing, individual monkeys): 0 ngAI/ml/hr; PRA ([1]; 1.0 MPK, 240 min from dosing, individual monkeys): 0 ngAI/ml/hr; PRA ([1]; 1.0 MPK, Pre (pretreatment level), individual monkeys): 70.5 ngAI/ml/hr and 185.4 ngAI/ml/hr and 76.1 ngAI/ml/hr; inhibition at 0.1 mg/kg ([1]; 0.1 MPK, 120 min, individual monkeys, read-out: % INH (from pretreatment PRA)): 55.3%; inhibition at 1 mg/kg ([1]; 1.0 MPK, 60 min, individual monkeys, read-out: % INH (from pretreatment PRA)): 100%; inhibition at 1 mg/kg ([1]; 1.0 MPK, 120 min, individual monkeys, read-out: % INH (from pretreatment PRA)): 100%; inhibition at 1 mg/kg ([1]; 1.0 MPK, 240 min, individual monkeys, read-out: % INH (from pretreatment PRA)): 100%; inhibition at 1 mg/kg ([1]; 1.0 MPK, printed on the Pre line, read-out: % INH): 100%; inhibition at 1 mg/kg ([1]; 1 h, 1.0 MPK, 60 min, mean of monkeys, read-out: MEAN % INH): 100%; inhibition at 1 mg/kg ([1]; 2 h, 1.0 MPK, 120 min, mean of monkeys, read-out: MEAN % INH): 100%; inhibition at 1 mg/kg ([1]; 4 h, 1.0 MPK, 240 min, mean of monkeys, read-out: MEAN % INH): 100%
